Earlier results on one compound are cited in patent publication US5837685A (priority 1996, dated 1998).

One data set has as its system patients. The conditions noted are these: some impairment of renal function regardless of dosage.

`C[C@@H]1[C@H](O)[C@@H](C)/C=C/C=C/C=C/C=C/C=C/C=C/C=C/[C@H](O[C@@H]2O[C@H](C)[C@@H](O)[C@H](N)[C@@H]2O)C[C@@H]2O[C@](O)(C[C@@H](O)C[C@@H](O)[C@H](O)CC[C@@H](O)C[C@@H](O)CC(=O)O[C@H]1C)C[C@H](O)[C@H]2C(=O)O` [Amphotericin B]: in the data set on Candida, the “active in vitro at concentrations of” value is 0.01 to 2 µg/mL. In addition, the toxicity entry in the data set with patients is “highly toxic”.
